Laboratory results as given in paper PMC9782626, “Copper(II) Complexes of 5–Fluoro–Salicylaldehyde: Synthesis, Characterization, Antioxidant Properties, Interaction with DNA and Serum Albumins” (Molecules, 2022).

Test: DPPH radical scavenging assay
Type: biochemical
Conditions: compound 0.1 mM
From the text: For the above reasons, the antioxidant ability of 5–F–saloH and Cu(II) complexes 1–5 has been evaluated via their scavenging activity towards DPPH and ABTS radicals, as well as the ability to reduce H2O2, and in comparison with that of well-known antioxidant agents such as nordihydroguaiaretic acid (NDGA), butylated hydroxytoluene (ΒHΤ), 6–hydroxy–2,5,7,8–tetramethylchromane–2–carboxylic acid (trolox) and L–ascorbic acid (these are the most commonly used standard reference antioxidant agents). The DPPH-radical assay was developed in the 1950s and this method has been used to assess the antioxidant capacity of several metal complexes. The DPPH–scavenging ability of compounds has often been related to their ability to prevent ageing, cancer and inflammation. The ability of a compound to scavenge the cationic ABTS radicals (ABTS^+●) has been considered a measure of its total antioxidant activity. Further, hydrogen peroxide has the ability to penetrate biological membranes and, although it is not very reactive itself, it can sometimes be toxic since it may give rise to hydroxyl radicals in cells. For this reason, the removal of H2O2 is very important for the protection of living systems. When a compound is incubated with H2O2 using a peroxidase assay system, the loss of H2O2 can be measured.
S1 Antioxidant activity assay
The antioxidant activity of the compounds was evaluated via their ability to scavenge in vitro free radicals such as DPPH and ABTS and to reduce H 2O2. All the experiments were carried out at least in triplicate and the standard deviation of absorbance was less than 10% of the mean.
S1.1 Determination of the reducing activity of the radical DPPH
To an ethanolic solution of DPPH (0.1 mM) an equal volume solution of the compounds (0.1 mM) in ethanol was added. Absolute ethanol was also used as control solution. The absorbance at 517 nm was recorded at room temperature after 30 and 60 min, in order to examine the possible existence of a potential time-dependence of the DPPH radical scavenging act iv ity [S 1]. The DPPH -scavenging activity of the compounds was expressed as the percentage reduction of the absorbance values of the initial DPPH solution ( DPPH%). N DGA and BHT were used as reference comp ounds. […]

CO.Cc1ccc2ccc3ccc(C)nc3c2n1.O=Cc1cc(F)ccc1[O-].[Cl-].[Cu+2] [Complex 3, [Cu(5–F–salo)(neoc)Cl].CH3OH]
DPPH% (30 min), % DPPH–scavenging ability: 7.42 ± 0.54%

O=Cc1cc(F)ccc1[O-].O=[N+]([O-])[O-].[Cu+2].c1ccc(-c2ccccn2)nc1 [Complex 5, [Cu(5–F–salo)(bipy)(NO3)]]
DPPH% (30 min), % DPPH–scavenging ability: 7.19 ± 0.26% | DPPH% (60 min), % DPPH–scavenging ability: 4.06 ± 0.20%

O=Cc1cc(F)ccc1[O-].[Cl-].[Cu+2].c1ccc(Nc2ccccn2)nc1 [Complex 2, [Cu(5–F–salo)(bipyam)Cl]]
DPPH% (30 min), % DPPH–scavenging ability: 7.54 ± 0.20% | DPPH% (60 min), % DPPH–scavenging ability: 7.42 ± 0.50%

O=Cc1cc(F)ccc1[O-].O=Cc1cc(F)ccc1[O-].[Cu+2] [Complex 1, [Cu(5–F–salo)2]]
DPPH% (30 min), % DPPH–scavenging ability: 9.05 ± 0.54% | DPPH% (60 min), % DPPH–scavenging ability: 10.79 ± 0.20%

O=Cc1cc(F)ccc1[O-].O=[N+]([O-])[O-].[Cu+2].c1cnc2c(c1)ccc1cccnc12 [Complex 4, [Cu(5–F–salo)(phen)(NO3)]]
DPPH% (30 min), % DPPH–scavenging ability: 6.15 ± 0.33% | DPPH% (60 min), % DPPH–scavenging ability: 4.64 ± 0.10%
